Measured values: patent EP3181574A1, “HIGHLY SOLUBLE REBAUDIOSIDE D” (Purecircle USA, priority 2010, dated 2012)
Read-outs that look alike come from different tables or passages of the source.

Assays:
[1] = cited from earlier work
[2] = water, room temperature; cited from earlier work
[3] = Solubility of Rebaudioside D (crystalline vs amorphous) in water; assay type: physicochemical; conditions: for solubility: room temperature, % = grams soluble in 100 grams of solvent
Protocol: Hereinafter, unless specified otherwise the solubility of material is determined in RO (reverse osmosis) water at room temperature. Where the solubility is expressed as "%" it to be understood as number of grams of material soluble in 100 grams of solvent.
100g of crystalline Rebaudioside D, produced by PureCircle Sdn Bhd, with 98.1% purity (on anhydrous basis) was dissolved in 500 mL aqueous ethanol, containing 50% (vol.) ethanol. The solution was maintained at 50°C and dried using a YC-015 laboratory spray drier (Shanghai Pilotech Instrument & Equipment Co. Ltd., China) operating at 175°C inlet and 100°C outlet temperatures. […]

[4] = 50°C, solution crystallized after cooling down to room temperature (20°C)
[5] = 100°C, solution crystallized after cooling down to room temperature (20°C)

In the case of `C=C1C[C@@]23CC[C@H]4[C@@](C)(CCC[C@@]4(C)C(=O)O[C@@H]4O[C@H](CO)[C@@H](O)[C@H](O)[C@H]4O)[C@@H]2CC[C@]1(O[C@@H]1O[C@H](CO)[C@@H](O)[C@H](O[C@@H]2O[C@H](CO)[C@@H](O)[C@H](O)[C@H]2O)[C@H]1O[C@@H]1O[C@H](CO)[C@@H](O)[C@H](O)[C@H]1O)C3` [Form 1 Hydrate, Rebaudioside A], the “Rate of dissolution in H2O at 25°C” value ([1]; in 60 minutes) is given as “Very low (<0.2% in 60 minutes)”.
In the case of `C=C1C[C@@]23CC[C@H]4[C@@](C)(CCC[C@@]4(C)C(=O)O[C@@H]4O[C@H](CO)[C@@H](O)[C@H](O)[C@H]4O)[C@@H]2CC[C@]1(O[C@@H]1O[C@H](CO)[C@@H](O)[C@H](O[C@@H]2O[C@H](CO)[C@@H](O)[C@H](O)[C@H]2O)[C@H]1O[C@@H]1O[C@H](CO)[C@@H](O)[C@H](O)[C@H]1O)C3` [Form 2 Anhydrous, Rebaudioside A], the “Rate of dissolution in H2O at 25°C” value ([1]; in 5 minutes) is given as “Intermediate (<30% in 5 minutes)”.
In the case of `C=C1C[C@@]23CC[C@H]4[C@@](C)(CCC[C@@]4(C)C(=O)O[C@@H]4O[C@H](CO)[C@@H](O)[C@H](O)[C@H]4O)[C@@H]2CC[C@]1(O[C@@H]1O[C@H](CO)[C@@H](O)[C@H](O[C@@H]2O[C@H](CO)[C@@H](O)[C@H](O)[C@H]2O)[C@H]1O[C@@H]1O[C@H](CO)[C@@H](O)[C@H](O)[C@H]1O)C3` [Form 3 Solvate, Rebaudioside A], the “Rate of dissolution in H2O at 25°C” value ([1]; in 5 minutes) is listed as “High (>30% in 5 minutes)”.
In the case of `C=C1C[C@@]23CC[C@H]4[C@@](C)(CCC[C@@]4(C)C(=O)O[C@@H]4O[C@H](CO)[C@@H](O)[C@H](O)[C@H]4O)[C@@H]2CC[C@]1(O[C@@H]1O[C@H](CO)[C@@H](O)[C@H](O[C@@H]2O[C@H](CO)[C@@H](O)[C@H](O)[C@H]2O)[C@H]1O[C@@H]1O[C@H](CO)[C@@H](O)[C@H](O)[C@H]1O)C3` [Form 4 Amorphous, Rebaudioside A], the “Rate of dissolution in H2O at 25°C” value ([1]; in 5 minutes) is listed as “High (>35% in 5 minutes)”.
In the case of `C=C1C[C@@]23CC[C@H]4[C@@](C)(CCC[C@@]4(C)C(=O)O[C@@H]4O[C@H](CO)[C@@H](O)[C@H](O)[C@H]4O)[C@@H]2CC[C@]1(O[C@@H]1O[C@H](CO)[C@@H](O)[C@H](O[C@@H]2O[C@H](CO)[C@@H](O)[C@H](O)[C@H]2O)[C@H]1O[C@@H]1O[C@H](CO)[C@@H](O)[C@H](O)[C@H]1O)C3` [Rebaudioside A], the thermodynamic equilibrium solubility [2] is listed as 0.8%.
With `C=C1C[C@@]23CC[C@H]4[C@@](C)(CCC[C@@]4(C)C(=O)O[C@@H]4O[C@H](CO)[C@@H](O)[C@H](O)[C@H]4O[C@@H]4O[C@H](CO)[C@@H](O)[C@H](O)[C@H]4O)[C@@H]2CC[C@]1(O[C@@H]1O[C@H](CO)[C@@H](O)[C@H](O[C@@H]2O[C@H](CO)[C@@H](O)[C@H](O)[C@H]2O)[C@H]1O[C@@H]1O[C@H](CO)[C@@H](O)[C@H](O)[C@H]1O)C3` [Rebaudioside D] the “solubility when heat is applied” value ([3]; water, heated, upon cooling to room temperature crystallizes back out from the solution) was “up to 0.5%” and the solubility ([3]; water) was 0.05%.
For `C=C1C[C@@]23CC[C@H]4[C@@](C)(CCC[C@@]4(C)C(=O)O[C@@H]4O[C@H](CO)[C@@H](O)[C@H](O)[C@H]4O[C@@H]4O[C@H](CO)[C@@H](O)[C@H](O)[C@H]4O)[C@@H]2CC[C@]1(O[C@@H]1O[C@H](CO)[C@@H](O)[C@H](O[C@@H]2O[C@H](CO)[C@@H](O)[C@H](O)[C@H]2O)[C@H]1O[C@@H]1O[C@H](CO)[C@@H](O)[C@H](O)[C@H]1O)C3` [amorphous Reb D, Rebaudioside D], the “Solubility, % (in water)” value ([3]; 20°C) was 0.1%, the “Solubility, % (in water)” value [3, 4] was 0.5% and the “Solubility, % (in water)” value [3, 5] was 1.1%. The solubility ([3]; water) was 0.2%.
In the case of `C=C1C[C@@]23CC[C@H]4[C@@](C)(CCC[C@@]4(C)C(=O)O[C@@H]4O[C@H](CO)[C@@H](O)[C@H](O)[C@H]4O[C@@H]4O[C@H](CO)[C@@H](O)[C@H](O)[C@H]4O)[C@@H]2CC[C@]1(O[C@@H]1O[C@H](CO)[C@@H](O)[C@H](O[C@@H]2O[C@H](CO)[C@@H](O)[C@H](O)[C@H]2O)[C@H]1O[C@@H]1O[C@H](CO)[C@@H](O)[C@H](O)[C@H]1O)C3` [crystalline Rebaudioside D, Rebaudioside D], the “Solubility, % (in water)” value ([3]; 20°C) is reported as 0.05%, the “Solubility, % (in water)” value [3, 4] is reported as 0.2% and the “Solubility, % (in water)” value [3, 5] is reported as 0.5%. It also gave a solubility ([3]; water) of 0.05%.
